Assay results: article PMC5358767 (PLoS ONE, 2017)
Where a name gives a salt, the structure may show the parent alone. Read-outs that look alike come from different tables or passages of the source. abz = not defined here; dnp = not defined here

What was measured:
[1] = molecular target: T1, Sortase A (Ss-SrtA) (Streptococcus suis, UniProt Q8VUP7); test: fluorescence-quenched peptide (abz-LPATG-dnp) hydrolysis assay with recombinant enzyme; format: biochemical
T1 construct: residues N24-Q235, C-terminal His-tag

[2] = test system: S. suis; test: microbe, parasite or virus in culture; design: species or system Streptococcus suis; microtiter broth dilution MIC of natural products against S. suis
Procedure: To find potent Ss-SrtA inhibitors, the 11 natural products listed in S1 Table were selected for experimental validation using purified recombinant Ss-SrtA. […] Using the microtiter broth dilution method, we measured the MIC values of all these natural products to be >500 μM (S1 Table). […] S. suis strains were cultured in Todd–Hewitt broth (THB; Oxoid Ltd.) without shaking or Todd–Hewitt broth agar plates at 37°C with 5% CO2. E. coli and S. aureus strains were grown in Luria-Bertani (LB) medium at 37°C with shaking at 200 rpm or plated on LB agar. If required, cultures were supplemented with antibiotics at the following concentrations: erythromycin, 3 μg ml^−1 for S. aureus; ampicillin, 100 μg ml^−1 for E. coli.

[3] = molecular target: T2, Sortase A (Sa-SrtA) (Staphylococcus aureus, UniProt Q2FV99); test: SrtA-dependent fluorescent peptide incorporation in live cells, flow cytometry; […] inhibition at […]; format: cell-based
T2 construct: endogenous, S. aureus Newman D2C cells

[4] = molecular target: T2, Sortase A (Sa-SrtA); test: as above; format: cell-based; remark: listed apart in the source
[5] = molecular target: T2, Sortase A (Sa-SrtA); test: as above; format: cell-based; remark: listed apart in the source
[6] = molecular target: Streptococcus suis sortase A (recombinant, residues N24-Q235 with C-terminal His-tag) (Streptococcus suis)
[7] = Streptococcus suis, read-out: MIC

T1 sequence (Q8VUP7 entry or part of it): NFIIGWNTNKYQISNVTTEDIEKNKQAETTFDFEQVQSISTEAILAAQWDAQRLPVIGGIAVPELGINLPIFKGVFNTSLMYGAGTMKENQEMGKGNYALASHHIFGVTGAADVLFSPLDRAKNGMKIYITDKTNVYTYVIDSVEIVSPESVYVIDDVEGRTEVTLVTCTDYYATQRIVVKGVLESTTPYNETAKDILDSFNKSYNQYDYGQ
T2 sequence (Q2FV99 whole entry): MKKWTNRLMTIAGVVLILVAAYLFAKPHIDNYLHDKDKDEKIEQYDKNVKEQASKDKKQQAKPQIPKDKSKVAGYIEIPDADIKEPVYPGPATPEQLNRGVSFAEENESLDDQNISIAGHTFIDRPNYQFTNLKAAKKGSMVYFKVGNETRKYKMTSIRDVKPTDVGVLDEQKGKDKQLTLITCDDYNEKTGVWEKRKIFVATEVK

Molecule	IC50 [1] [µM]	MIC [2, 7] [µM]	other results
COc1cc(/C=C/C(=O)CC(=O)/C=C/c2ccc(O)c(OC)c2)ccc1O [curcumin]	< 100	> 500	–
O=c1cc(-c2ccccc2)oc2cc(O)c(O)c(O)c12 [Baicalein]	–	> 500	–
O=C(O)[C@H]1O[C@@H](Oc2cc3oc(-c4ccccc4)cc(=O)c3c(O)c2O)[C@H](O)[C@@H](O)[C@@H]1O [baicalin]	85.4 ± 1.5	> 500	inhibition at 200 µM [3]: 45%
C[C@@H]1O[C@@H](OC[C@H]2O[C@@H](Oc3c(-c4ccc(O)c(O)c4)oc4cc(O)cc(O)c4c3=O)[C@H](O)[C@@H](O)[C@@H]2O)[C@H](O)[C@H](O)[C@H]1O [Rutin]	–	> 500	–
CCCCC[C@H](O)CC(=O)CCc1ccc(O)c(OC)c1 [6-Gingerol]	–	> 500	–
O=c1c(O[C@@H]2O[C@H](CO)[C@@H](O)[C@H](O)[C@H]2O)c(-c2ccc(O)c(O)c2)oc2cc(O)cc(O)c12 [isoquercitrin]	–	> 500	inhibition at 200 µM [4]: 28%
O=c1c(O)c(-c2ccc(O)c(O)c2)oc2cc(O)cc(O)c12 [quercetin]	< 100	> 500	–
COc1c(O)cc(O)c2c(=O)cc(-c3ccccc3)oc12 [Wogonin]	–	> 500	–
O=c1cc(-c2ccc(O)cc2)oc2c([C@@H]3O[C@H](CO)[C@@H](O)[C@H](O)[C@H]3O)c(O)cc(O)c12 [Vitexin]	–	–	MIC ([2]; inhibitor): >500 µM
C[C@@H]1O[C@@H](O[C@@H]2[C@@H](O)[C@H](OCCc3ccc(O)c(O)c3)O[C@H](CO)[C@H]2OC(=O)/C=C/c2ccc(O)c(O)c2)[C@H](O)[C@H](O)[C@H]1O [acteoside]	36.3 ± 1.3	> 500	inhibition at 200 µM [5]: 86%
COc1ccc2cc3[n+](cc2c1OC)CCc1cc2c(cc1-3)OCO2 [berberine hydrochloride]	< 100	> 500	–
abz-LPATG-dnp (reading uncertain; also: printed as abz-LPATG-dnp) [abz-LPATG-dnp (internally quenched fluorescent peptide substrate)]	–	–	Km for the hydrolysis of abz-LPATG-dnp by purified Ss-SrtA (fluorescence increase of the quenched peptide; substrate 0.375-64 μM; 50 mM Tris·HCl, 150 mM NaCl, pH 7.5, 37°C) [6]: 6.7 μM
